Measured values taken from the supplement of paper PMC10883282.

What was measured:
Assay in all cases: relative viability vs DMSO control (72 h) (fraction); higher = more viable cells
[1] = system: SK-LMS-1
In short: (§1)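 Sarcoma cell lines were seeded in 384-well plates at densities chosen for 80–90% confluence, then 24 h later given 2.5 µl of serially diluted compound drawn from source plates spanning 10 mM to 0.0002 mM. They were held 72 h at 37 °C, 5% CO2, with 0.1% DMSO vehicle and a 5 µM positive control included. Relative viability was read with ATPLite as percent growth and averaged over up to triplicate wells. Rescaling placed full at 1 and none at 0.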

[2] = system: G401
In short: as §1

[3] = system: RD-ES
In short: as §1

[4] = system: KHOS-NP
In short: as §1

[5] = system: SW872
In short: as §1

[6] = system: MES-SA
In short: as §1

[7] = system: VA-ES-BJ
In short: as §1

[8] = system: SW1353
In short: as §1

[9] = system: HT1080
In short: as §1

[10] = system: RD
In short: as §1

[11] = system: SW684
In short: as §1

[12] = system: SK-ES-1
In short: as §1

N#CC1(c2ccc(NC(=O)c3cccnc3NCc3ccncc3)cc2)CCCC1 [Apatinib]
Details | relative viability
[1], 0.00017 µM | 1.06
[1], 0.00051 µM | 1.06
[1], 0.00152 µM | 1.07
[1], 0.00457 µM | 1.05
[1], 0.01372 µM | 1.07
[1], 0.04115 µM | 1.08
[1], 0.1235 µM | 1.01
[1], 0.3704 µM | 1.05
[1], 1.111 µM | 1.02
[1], 3.333 µM | 1
[1], 10 µM | 0.833
[2], 0.00017 µM | 1.006
[2], 0.00051 µM | 1
[2], 0.00152 µM | 0.995
[2], 0.00457 µM | 0.979
[2], 0.01372 µM | 1.01
[2], 0.04115 µM | 0.995
[2], 0.1235 µM | 0.955
[2], 0.3704 µM | 0.927
[2], 1.111 µM | 0.901
[2], 3.333 µM | 0.895
[2], 10 µM | 0.7567
[3], 0.00017 µM | 0.936
[3], 0.00051 µM | 0.968
[3], 0.00152 µM | 0.979
[3], 0.00457 µM | 0.946
[3], 0.01372 µM | 0.942
[3], 0.04115 µM | 0.961
[3], 0.1235 µM | 0.955
[3], 0.3704 µM | 0.902
[3], 1.111 µM | 0.91
[3], 3.333 µM | 0.892
[3], 10 µM | 0.798
[4], 0.00017 µM | 1.03
[4], 0.00051 µM | 1.04
[4], 0.00152 µM | 1.05
[4], 0.00457 µM | 1.05
[4], 0.01372 µM | 1.06
[4], 0.04115 µM | 1.08
[4], 0.1235 µM | 1.04
[4], 0.3704 µM | 1.027
[4], 1.111 µM | 1
[4], 3.333 µM | 0.918
[4], 10 µM | 0.726
[5], 0.00017 µM | 1.06
[5], 0.00051 µM | 1.07
[5], 0.00152 µM | 1.05
[5], 0.00457 µM | 1.05
[5], 0.01372 µM | 1.08
[5], 0.04115 µM | 1.08
[5], 0.1235 µM | 1.05
[5], 0.3704 µM | 1.02
[5], 1.111 µM | 1.02
[5], 3.333 µM | 1.03
[5], 10 µM | 0.972
[6], 0.00017 µM | 0.978
[6], 0.00051 µM | 0.958
[6], 0.00152 µM | 0.946
[6], 0.00457 µM | 0.9268
[6], 0.01372 µM | 0.929
[6], 0.04115 µM | 0.939
[6], 0.1235 µM | 0.928
[6], 0.3704 µM | 0.938
[6], 1.111 µM | 0.885
[6], 3.333 µM | 0.875
[6], 10 µM | 0.773
[7], 0.00017 µM | 1.04
[7], 0.00051 µM | 1.08
[7], 0.00152 µM | 1.05
[7], 0.00457 µM | 1.08
[7], 0.01372 µM | 1.06
[7], 0.04115 µM | 1.07
[7], 0.1235 µM | 1.067
[7], 0.3704 µM | 1.07
[7], 1.111 µM | 1.11
[7], 3.333 µM | 1.14
[7], 10 µM | 1.17
[8], 0.00017 µM | 1.03
[8], 0.00051 µM | 1.005
[8], 0.00152 µM | 0.988
[8], 0.00457 µM | 1.01
[8], 0.01372 µM | 0.9811
[8], 0.04115 µM | 0.992
[8], 0.1235 µM | 0.981
[8], 0.3704 µM | 0.948
[8], 1.111 µM | 0.935
[8], 3.333 µM | 0.994
[8], 10 µM | 0.928
[9], 0.00017 µM | 1.02
[9], 0.00051 µM | 1.05
[9], 0.00152 µM | 1.05
[9], 0.00457 µM | 1.081
[9], 0.01372 µM | 1.07
[9], 0.04115 µM | 1.05
[9], 0.1235 µM | 1.069
[9], 0.3704 µM | 1.04
[9], 1.111 µM | 1.03
[9], 3.333 µM | 1.04
[9], 10 µM | 0.9829
[10], 0.00017 µM | 0.992
[10], 0.00051 µM | 1.02
[10], 0.00152 µM | 1.03
[10], 0.00457 µM | 1.01
[10], 0.01372 µM | 1.02
[10], 0.04115 µM | 1.01
[10], 0.1235 µM | 1.02
[10], 0.3704 µM | 1.01
[10], 1.111 µM | 1.05
[10], 3.333 µM | 1.09
[10], 10 µM | 1.12
[11], 0.00017 µM | 1.04
[11], 0.00051 µM | 1.1
[11], 0.00152 µM | 1.06
[11], 0.00457 µM | 1.08
[11], 0.01372 µM | 1.09
[11], 0.04115 µM | 1.09
[11], 0.1235 µM | 1.1
[11], 0.3704 µM | 1.05
[11], 1.111 µM | 1.07
[11], 3.333 µM | 1.05
[11], 10 µM | 1.02
[12], 0.00017 µM | 0.968
[12], 0.00051 µM | 0.986
[12], 0.00152 µM | 0.95
[12], 0.00457 µM | 0.964
[12], 0.01372 µM | 1
[12], 0.04115 µM | 0.991
[12], 0.1235 µM | 0.999
[12], 0.3704 µM | 1.01
[12], 1.111 µM | 0.978
[12], 3.333 µM | 0.936
[12], 10 µM | 0.845
